Reference: US9932311B2, “Antidiabetic tricyclic compounds” (Merck Sharp & Dohme Corp., priority 2013, dated 2018)

Tests used:
Human GPR40 [1] = biological target: T1, Human GPR40 (Homo sapiens, UniProt O14842); assay: Inositol Phosphate Turnover (IP1) Assay 2; assay type: cell-based; design: expressed in transfected cells; host or cells: HEK cells stably expressing the aequorin reporter; settings: HEK cells stably expressing human GPR40, 384-well, CisBio IP-One kit
Protocol: The assay was performed in 384-well format. HEK cells stably expressing human GPR40 were plated at 15,000 cells per well in growth medium (DMEM/10% fetal calf serum). Cell plates were then incubated 16 hours at 37 degrees in a 5% CO2 incubator.
Measurement of Inositol Phosphate Turnover (IP1) was performed using the CisBio IP-One kit (Part number 62IPAPEB). After the 16 hour incubation, the cells were washed with HEPES buffer and 10 ul of stimulation buffer (prepared as described in the kit) was added to each well. In a separate plate, compounds were diluted in DMSO (400-fold over the final concentration in the assay well) and 25 nl was acoustically transferred to the appropriate well in the assay cell plate. The plates were then incubated for 60 minutes at 37 degrees. 10 ul of detection buffer (also prepared as described in the IP-One kit) was added to each well and the plates were incubated for 60 minutes in the dark. The plates were then read in a Perkin Elmer EnVision or equivalent reader able to measure FRET. Fluorescent ratio of emission at 665 and 620 nm was then converted to IP1 concentration by back calculating from an IP1 standard curve prepared at the time of the assay.

Human GPR40 [2] = biological target: T1, Human GPR40; assay: Inositol Phosphate Turnover (IP1) Assay 1; assay type: cell-based; design: expressed in transfected cells; host or cells: HEK cells stably expressing the aequorin reporter; settings: HEK cells stably expressing human GPR40, 96-well, 3H-inositol labeling, SPA beads
Protocol: Human and mouse GPR40 stable cell-lines were generated in CHO cells stably expressing NFAT BLA (Beta-lactamase). A human GPR40 stable cell-line was generated in HEK cells stably expressing the aequorin expressing reporter. The expression plasmids were transfected using lipofectamine (Life Technologies) following manufacturer's instructions. Stable cell-lines were generated following drug selection.
The assay was performed in 96-well format. HEK cells stably expressing human GPR40 were plated to be 60-80% confluent within 72 h. After 72 h, the plates were aspirated and the cells washed with inositol-free DMEM (ICN). The wash media was replaced with 150 μL of 3H-inositol labeling media (inositol-free media containing 0.4% human albumin or 0.4% mouse albumin, 1× pen/strep antibiotics, glutamine, 25 mM HEPES to which was added 3H-myo-inositol NEN #NET114A 1 mCi/mL, 25 Ci/mmol diluted 1:150 in loading media with a final specific radioactivity of 1 μCi/150 μL). Alternatively, the human and mouse albumin can be added after the overnight labeling step before the addition of LiCl.
The assay was typically run the next day after 18 h labeling. On the day of the assay, 5 μL of 300 mM LiCl was added to all wells and incubated at 37 degrees for 20 min 0.75 μL of 200× compounds were added and incubated with the cells for 60 min at 37 degrees. The media was then aspirated off and the assay terminated with the addition of 60 μL 10 mM formic acid. The cells were lysed for 60 min at room temperature. 15-30 μL of lysate was mixed with 70 μL/1 mg YSi SPA beads (Amersham) in clear bottom Isoplates. The plates were shaken for 2 h at room temperature. Beads were allowed to settle and the plates were counted in the Wallac Microbeta.

T1 sequence (O14842 whole entry): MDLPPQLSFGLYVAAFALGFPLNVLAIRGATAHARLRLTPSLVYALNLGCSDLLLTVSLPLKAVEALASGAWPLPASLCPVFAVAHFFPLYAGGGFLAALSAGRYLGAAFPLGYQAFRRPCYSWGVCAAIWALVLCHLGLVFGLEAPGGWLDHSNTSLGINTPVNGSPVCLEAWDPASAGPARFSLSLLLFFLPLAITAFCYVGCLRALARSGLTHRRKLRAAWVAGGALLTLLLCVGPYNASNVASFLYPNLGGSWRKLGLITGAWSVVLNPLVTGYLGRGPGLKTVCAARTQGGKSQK

Row | Structure (SMILES) | EC50 (Human GPR40 [1]) | EC50 (Human GPR40 [2])
1 | Cc1cc(OCCC(C)(O)C(F)F)nc(C)c1-c1cc(COc2cc3c(cn2)C2[C@@H](C3)[C@@H]2C(=O)O)c(F)cc1F (stereo in doubt) [Example 17, (5aR,6S,6aR)-3-((5-(6-(4,4-difluoro-3-hydroxy-3-methyl-butoxy)-2,4-di-methylpyridin-3-yl)-2,4-difluorobenzyl)oxy)-5,5a,6,6a-tetra-hydrocyclopropa[4,5] cyclopenta[1,2-c] pyridine-6-carboxylic acid] | 2.1 nM | 
2 | Cc1cc(OCCC(C)(O)CO)cc(C)c1-c1cc(COc2cc3c(cn2)[C@H]2[C@@H](C3)[C@@H]2C(=O)O)c(F)cc1F (stereo partly drawn) [Example 19, (5aR,6S,6aS)-3-((4′-(3,4-dihydroxy-3-methyl-butoxy)-4,6-difluoro-2′,6′-dimethyl-[1,1′-biphenyl]-3-yl)methoxy)-5,5a,6,6a-tetrahydro-cyclopropa[4,5]-cyclopenta[1,2-c] pyridine-6-carboxylic acid] | 1.6 nM | 
3 | Cc1nc(OCCC(C)(O)CO)ccc1-c1cc(COc2cc3c(cn2)[C@H]2[C@@H](C3)[C@@H]2C(=O)O)c(F)cc1C(F)(F)F (stereo partly drawn) [Example 20, (5aR,6S,6aS)-3-((5-(6-(3,4-dihydroxy-3-methyl-butoxy)-2-methylpyridin-3-yl)-2-fluoro-4-(tri-fluoro-methyl)benzyl)-oxy)-5,5a,6,6a-tetra-hydro-cyclopropa[4,5]-cyclopenta[1,2-c]-pyridine-6-carboxylic acid] | 3.1 nM | 
4 | C[C@@](O)(CO)CCOc1ccc(-c2cc(COc3cc4c(cn3)[C@H]3[C@@H](C4)[C@@H]3C(=O)O)c(F)cc2F)c(Cl)c1 [Example 21, (5aR,6S,6aS)-3-((2′-chloro-4′-((S)-3,4-dihydroxy-3-methyl-butoxy)-4,6-di-fluoro-[1,1′-biphenyl]-3-yl)methoxy)-5,5a,6,6a-tetrahydrocyclopropa [4,5]cyclopenta[1,2-c] pyridine-6-carboxylic acid] | 2.2 nM | 
5 | Cc1cc(OCC(C(C)(C)O)C(C)(C)O)cc(C)c1-c1cc(COc2cc3c(cn2)[C@H]2[C@@H](C3)[C@@H]2C(=O)O)c(F)cc1F [Example 22, (5aR,6S,6aS)-3-((4,6-difluoro-4′-(3-hydroxy-2-(2-hydroxypropan-2-yl)-3-methylbutoxy)-2′,6′-dimethyl-[1,1′-biphenyl]-3-yl)methoxy)-5,5a,6,6a-tetrahydrocyclopropa[4,5]cyclopenta[1,2-c]pyridine-6-carboxylic acid] | 3.1 nM | 
6 | Cc1cc(CCC(C)(O)CO)cc(C)c1-c1cc(COc2cc3c(cn2)[C@H]2[C@@H](C3)[C@@H]2C(=O)O)c(F)cc1F (stereo partly drawn) [Example 23, (5aR,6S,6aS)-3-((4′-(3,4-dihydroxy-3-methylbutyl)-4,6-difluoro-2′,6′-dimethyl-[1,1′-biphenyl]-3-yl)methoxy)-5,5a,6,6a-tetrahydrocyclopropa[4,5]cyclopenta[1,2-c]pyridine-6-carboxylic acid] | 5.2 nM | 
7 | Cc1cc(OCC[C@H](O)CO)cc(C)c1-c1cc(COc2cc3c(cn2)[C@H]2[C@@H](C3)[C@@H]2C(=O)O)c(F)cc1F [Example 24, Sodium (5aR,6S,6aS)-3-((4′-((S)-3,4-dihydroxybutoxy)-4,6-difluoro-2′,6′-dimethyl-[1,1′-biphenyl]-3-yl)methoxy)-5,5a,6,6a-tetrahydrocyclopropa[4,5]cyclopenta[1,2-c]pyridine-6-carboxylate] | 1.3 nM | 4.6 nM
8 | Cc1cc(OCC[C@@H](O)CO)cc(C)c1-c1cc(COc2cc3c(cn2)[C@H]2[C@@H](C3)[C@@H]2C(=O)O)c(F)cc1F [Example 25, (5aR,6S,6aS)-3-((4′-((R)-3,4-dihydroxy-butoxy)-4,6-difluoro-2′,6′-dimethyl-[1,1′-biphenyl]-3-yl)methoxy)-5,5a,6,6a-tetrahydrocyclo-propa[4,5]cyclopenta [1,2-c]pyridine-6-carboxylic acid] | 3.8 nM | 4.7 nM
9 | Cc1cc(OCC[C@@H](O)CO)c(F)cc1-c1cc(COc2cc3c(cn2)[C@H]2[C@@H](C3)[C@@H]2C(=O)O)c(F)cc1Cl [Example 26, (5aR,6S,6aS)-3-((6-chloro-4′-((R)-3,4-dihydroxybutoxy)-4,5,-difluoro-2′-methyl-[1,1′-biphenyl]-3-yl)methoxy)-5,5a,6,6a-tetrahydrocyclo-propa[4,5]cyclopenta [1,2-c]pyridine-6-carboxylic acid] | 0.7 nM | 
